The record followed here is patent publication US20080275086A1, “Dpp-Iv Inhibitors” (priority 2005, published 2008).

Counter-ions that a name gives are not always drawn.

T1 sequence (P27487 31-766): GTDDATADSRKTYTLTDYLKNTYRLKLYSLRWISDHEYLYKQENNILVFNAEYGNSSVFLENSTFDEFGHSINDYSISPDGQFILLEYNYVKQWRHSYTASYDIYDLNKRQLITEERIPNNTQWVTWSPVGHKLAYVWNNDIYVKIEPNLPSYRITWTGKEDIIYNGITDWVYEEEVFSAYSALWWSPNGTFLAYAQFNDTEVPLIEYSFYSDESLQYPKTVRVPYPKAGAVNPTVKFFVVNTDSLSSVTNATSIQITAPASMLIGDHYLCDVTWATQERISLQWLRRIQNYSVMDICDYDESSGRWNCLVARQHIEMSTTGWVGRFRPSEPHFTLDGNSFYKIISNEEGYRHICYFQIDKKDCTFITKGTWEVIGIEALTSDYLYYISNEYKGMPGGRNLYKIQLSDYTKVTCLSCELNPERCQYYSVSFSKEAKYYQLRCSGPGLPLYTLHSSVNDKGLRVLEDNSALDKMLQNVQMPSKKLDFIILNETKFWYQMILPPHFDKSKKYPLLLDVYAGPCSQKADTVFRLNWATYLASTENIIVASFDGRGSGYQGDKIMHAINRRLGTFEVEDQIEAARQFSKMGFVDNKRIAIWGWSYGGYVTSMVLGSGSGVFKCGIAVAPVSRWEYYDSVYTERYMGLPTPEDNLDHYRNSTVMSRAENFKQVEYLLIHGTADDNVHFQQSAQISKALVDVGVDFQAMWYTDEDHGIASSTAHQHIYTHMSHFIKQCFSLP

One assay has as its target T1, DPP-IV (Homo sapiens, UniProt P27487).
T1 construct: Soluble human DPP-IV lacking the transmembrane anchor (Gly31-Pro766); Pre-Pro-alpha-mating factor leader (secretion fusion) (N, cleaved yes); made in house
Kind of assay: Continuous fluorimetric assay of inhibition of DPP-IV peptidase activity (Gly-Pro-AMC cleavage). Type of assay: biochemical.
Settings: not given
On the procedure:
Inhibition of DPP-IV peptidase activity was monitored with a continuous fluorimetric assay. This assay is based on the cleavage of the substrate Gly-Pro-AMC (Bachem) by DPP-IV, releasing free AMC. The assay is carried out in 96-well microtiterplates. In a total volume of 100 μL, compounds are preincubated with 50 pM DPP-IV employing a buffer containing 10 mM Hepes, 150 mM NaCl, 0.005% Tween 20 (pH 7.4). The reaction is started by the addition of 16 μM substrate and the fluorescence of liberated AMC is detected for 10 minutes at 25° C. with a fluorescence reader (BMG-Fluostar; BMG-Technologies) using an excitation wavelength of 370 nm and an emission wavelength of 450 nm. The final concentration of DMSO is 1%. The inhibitory potential of the compounds were determined.
Soluble human DPP-IV lacking the transmembrane anchor (Gly31-Pro766) was expressed in a recombinant YEAST-strain as Pre-Pro-alpha-mating fusion. The secreted product (rhuDPP-IV-Gly31-Pro766) was purified from fermentation broth (>90% purity) and used for inhouse screening.
As for `N#CC1(c2ccccc2)CCN(C(=O)C[C@H](N)Cc2ccccc2F)CC1` [Example 5], the IC50 is under 500 nM.

`N[C@@H](CC(=O)N1CCC(N2C(=O)Cc3ccccc32)CC1)Cc1ccccc1F` [Example 45]: the IC50 is under 500 nM.

Still in this assay, the particulars now being: 50 pM DPP-IV, 16 μM Gly-Pro-AMC, pH 7.4, 25° C.; values grouped in 2 classes; read-out: IC50 for inhibition of DPP-IV peptidase activity.
Turning to `N[C@@H](CC(=O)N1CCCC1Cc1ccccc1)Cc1ccccc1F` (mixture of isomers) [Example 12], the IC50 was under 500 nM.

Take `N[C@@H](CC(=O)N1CCC[C@H]1Cc1ccccc1)Cc1ccccc1F` (single isomer, unassigned) [Example 47]: the IC50 is under 500 nM.

In the case of `N[C@@H](CC(=O)N1CCC[C@@H]1Cc1ccccc1)Cc1ccccc1F` (single isomer, unassigned) [Example 48], the IC50 was under 500 nM.

`N[C@@H](CC(=O)N1CCC(Cc2ccccc2)CC1)Cc1ccccc1F` [Example 1]: the IC50 was 501 to 2000 nM.

Take `N[C@@H](CC(=O)N1CCC(CO)CC1)Cc1ccccc1F` [Example 2]: the 50% inhibitory concentration (IC50) lay within 501 to 2000 nM.

Turning to `N[C@@H](CC(=O)N1CCC(N(C2CC2)S(=O)(=O)c2ccccc2)CC1)Cc1ccccc1F` [Example 3], the IC50 was under 500 nM.

As to `N[C@@H](CC(=O)N1CCC(c2ccccc2)CC1)Cc1ccccc1F` [Example 4], the half-inhibitory concentration (IC50) was under 500 nM.

On to `N[C@@H](CC(=O)N1CCC(n2c(=O)[nH]c3ccccc32)CC1)Cc1ccccc1F` [Example 6], for which the IC50 was under 500 nM.

Turning to `COc1ccc(C2CCN(C(=O)C[C@H](N)Cc3ccccc3F)CC2)cc1` [Example 7], the IC50 was under 500 nM.

For `N[C@@H](CC(=O)N1CCC(N2CCCCC2=O)CC1)Cc1ccccc1F` [Example 8], the IC50 is 501 to 2000 nM.

For `COc1ccccc1C1CCN(C(=O)C[C@H](N)Cc2ccccc2F)CC1` [Example 9], the IC50 was under 500 nM.

On to `N[C@@H](CC(=O)N1CCC(O)CC1)Cc1ccccc1F` [Example 10], for which the half-maximal inhibitory concentration (IC50) was 501 to 2000 nM.

On to `CCN(CC)C(=O)C1CCCN(C(=O)C[C@H](N)Cc2ccccc2F)C1` (some centres unmarked) [Example 11], for which the concentration for half-maximal inhibition (IC50) was in the range of 501 to 2000 nM.

On to `N[C@@H](CC(=O)N1CCCC1Cc1cccnc1)Cc1ccccc1F` (some centres unmarked) [Example 13], for which the IC50 was under 500 nM.

Take `N[C@@H](CC(=O)N1CCC(n2c(=O)[nH]c3cc(Cl)ccc32)CC1)Cc1ccccc1F` [Example 14]: the IC50 is under 500 nM.

In the case of `N[C@@H](CC(=O)N1CCC(c2nc(-c3ccncc3)no2)CC1)Cc1ccccc1F` [Example 15], the IC50 is under 500 nM.

`N[C@@H](CC(=O)N1CCCC1Cc1cccc(Cl)c1)Cc1ccccc1F` (some centres unmarked) [Example 16]: the IC50 is under 500 nM.

As for `N[C@@H](CC(=O)N1CCCC1Cc1ccc(Cl)cc1)Cc1ccccc1F` (some centres unmarked) [Example 17], the IC50 was under 500 nM.

In the case of `N[C@@H](CC(=O)N1CCCC1Cc1ccccn1)Cc1ccccc1F` (some centres unmarked) [Example 18], the IC50 is under 500 nM.

For `N[C@@H](CC(=O)N1CCC(n2nnc3ccccc32)CC1)Cc1ccccc1F` [Example 19], the IC50 is under 500 nM.

Take `N[C@@H](CC(=O)N1CCC(Oc2ccccc2)CC1)Cc1ccccc1F` [Example 20]: the IC50 was under 500 nM.

On to `N[C@@H](CC(=O)N1CCC(c2nnc(-c3ccccc3)o2)CC1)Cc1ccccc1F` [Example 21], for which the IC50 was under 500 nM.

For the compound `CS(=O)(=O)c1ccc(-c2noc(C3CCN(C(=O)C[C@H](N)Cc4ccccc4F)CC3)n2)cc1` [Example 22], the IC50 was under 500 nM.

On to `N[C@@H](CC(=O)N1CCC(c2nc(-c3cccnc3)no2)CC1)Cc1ccccc1F` [Example 23], for which the IC50 is under 500 nM.

On to `N[C@@H](CC(=O)N1CCC(C(=O)NCCO)CC1)Cc1ccccc1F` [Example 24], for which the IC50 lay in the range of 501 to 2000 nM.

In the case of `N[C@@H](CC(=O)N1CCC(N2CCOCC2)CC1)Cc1ccccc1F` [Example 25], the IC50 was 501 to 2000 nM.

`N[C@@H](CC(=O)N1CCC(c2nc(-c3cnccn3)no2)CC1)Cc1ccccc1F` [Example 26]: the IC50 was under 500 nM.

As to `N[C@@H](CC(=O)N1CCC(C(F)(F)F)CC1)Cc1ccccc1F` [Example 27], the IC50 is under 500 nM.

Consider `N[C@@H](CC(=O)N1CCC(c2nnc(-c3ccc(F)cc3)o2)CC1)Cc1ccccc1F` [Example 28], for which the IC50 is under 500 nM.

As to `COc1cc(OC)nc(C2CCN(C(=O)C[C@H](N)Cc3ccccc3F)CC2)n1` [Example 29], the half-maximal inhibitory concentration (IC50) was under 500 nM.

On to `N[C@@H](CC(=O)N1CCCC(F)(F)C1)Cc1ccccc1F` [Example 30], for which the concentration for half-maximal inhibition (IC50) lay within 501 to 2000 nM.

As for `N[C@@H](CC(=O)N1CCC(Nc2cccc(S(=O)(=O)C(F)(F)F)c2)CC1)Cc1ccccc1F` [Example 31], the half-maximal inhibitory concentration (IC50) was under 500 nM.

Turning to `N[C@@H](CC(=O)N1CCC(c2nc3ccccc3[nH]2)CC1)Cc1ccccc1F` [Example 32], the IC50 was under 500 nM.

`N[C@@H](CC(=O)N1CCCC(Cc2ccccc2Cl)C1)Cc1ccccc1F` (some centres unmarked) [Example 33]: the IC50 lay within 501 to 2000 nM.

With `N[C@@H](CC(=O)N1CCCC(Oc2ccccc2)C1)Cc1ccccc1F` (some centres unmarked) [Example 34], the IC50 is under 500 nM.

`N[C@@H](CC(=O)N1CCC(c2ccc(Cl)cc2)CC1)Cc1ccccc1F` [Example 35]: the 50% inhibitory concentration (IC50) is 501 to 2000 nM.

Consider `N[C@@H](CC(=O)N1CCC(N(C2CC2)S(=O)(=O)c2ccc(Cl)cc2)CC1)Cc1ccccc1F` [Example 36], for which the IC50 is under 500 nM.

Consider `N[C@@H](CC(=O)N1CCC(c2cccc(F)c2)CC1)Cc1ccccc1F` [Example 37], for which the IC50 fell in the range of 501 to 2000 nM.

`N[C@@H](CC(=O)N1CCC(c2ccccc2C(F)(F)F)CC1)Cc1ccccc1F` [Example 38]: the IC50 was under 500 nM.

For `Cc1ccc(S(=O)(=O)C2CCN(C(=O)C[C@H](N)Cc3ccccc3F)CC2)cc1` [Example 39], the IC50 was under 500 nM.

In the case of `N[C@@H](CC(=O)N1CCC(c2nc(-c3cccc(C(F)(F)F)c3)no2)CC1)Cc1ccccc1F` [Example 40], the IC50 fell in the range of 501 to 2000 nM.

Regarding `N[C@@H](CC(=O)N1CCC(c2nnc(-c3cccc(C(F)(F)F)c3)o2)CC1)Cc1ccccc1F` [Example 41], the IC50 is 501 to 2000 nM.

For the compound `N[C@@H](CC(=O)N1CCC(c2cccc(Cl)c2)CC1)Cc1ccccc1F` [Example 42], the IC50 is 501 to 2000 nM.

`N[C@@H](CC(=O)N1CCCC(F)C1)Cc1ccccc1F` (some centres unmarked) [Example 43]: the IC50 is 501 to 2000 nM.

Take `N[C@@H](CC(=O)N1CCC(F)CC1)Cc1ccccc1F` [Example 44]: the IC50 is 501 to 2000 nM.

Take `N[C@@H](CC(=O)N1CCCC(C(F)(F)F)C1)Cc1ccccc1F` (some centres unmarked) [Example 46]: the IC50 was in the range of 501 to 2000 nM.

Consider `N[C@@H](CC(=O)N1CC(C(=O)NCc2ccccc2)C1)Cc1ccccc1F` [Example 49, 1-[3-(R)-amino-4-(2-fluoro-phenyl)-butyryl]-azetidine-3-carboxylic acid benzylamide], for which the IC50 was in the range of 501 to 2000 nM.

Turning to `N[C@@H](CC(=O)N1CC(C(=O)Nc2ccccn2)C1)Cc1ccccc1F` [Example 50], the IC50 lay in the range of 501 to 2000 nM.

Turning to `N[C@@H](CC(=O)N1CC(N2CCN(c3ccccn3)CC2)C1)Cc1ccccc1F` [Example 51, (3R)-3-amino-4-(2-fluoro-phenyl)-1-[3-(4-pyridin-2-yl-piperazin-1-yl)-azetidin-1-yl]-butan-1-one trifluoroacetic acid], the IC50 lay in the range of 501 to 2000 nM.

`N[C@@H](CC(=O)N1CC[C@H](NC(=O)C2CC2)C1)Cc1ccccc1F` [Example 52, N-((S)-1-((R)-3-amino-4-(2-fluorophenyl)butanoyl)pyrrolidin-3-yl)cyclopropane-carboxamide trifluoroacetic acid salt]: the IC50 was under 500 nM.

For `N[C@@H](CC(=O)N1CC[C@H](NC(=O)c2ccccc2)C1)Cc1ccccc1F` [Example 53, N-((S)-1-((R)-3-amino-4-(2-fluorophenyl)butanoyl)pyrrolidin-3-yl)benzamide trifluoroacetic acid salt], the IC50 was under 500 nM.

As to `N[C@@H](CC(=O)N1CC[C@@H](NC(=O)C2CC2)C1)Cc1ccccc1F` [Example 54, N-((R)-1-((R)-3-amino-4-(2-fluorophenyl)butanoyl)pyrrolidin-3-yl)cyclopropane-carboxamide trifluoroacetic acid salt], the IC50 was under 500 nM.

Turning to `N[C@@H](CC(=O)N1CC[C@@H](NC(=O)c2ccccc2)C1)Cc1ccccc1F` [Example 55, N-((R)-1-((R)-3-amino-4-(2-fluorophenyl)butanoyl)pyrrolidin-3-yl)benzamide trifluoroacetic acid salt], the IC50 was under 500 nM.

With `N[C@H](Cc1ccccc1F)CS(=O)(=O)N1CCC[C@H]1CNS(=O)(=O)c1ccccc1` [Example 56, N-{(S)-1-[(R)-2-Amino-3-(2-fluoro-phenyl)-propane-1-sulphonyl]-pyrrolidin-2-ylmethyl}-benzenesulfonamide], the IC50 is under 500 nM.
